The structures appear in SMILES notation.

In test [1] the target is T1, hERG (human Ether-à-go-go-Related Gene) potassium channel (Homo sapiens, UniProt Q12809).
T1 construct: expressed in transfected cells
As to the kind of experiment: hERG channel patch-clamp assay. The settings on record: CHO cells stably expressing hERG, whole-cell patch-clamp, room temperature; read-out: hERG inhibition Assay IC50. Type of test: cell-based. The protocol: The hERG assay, in which hERG is brought to expression in CHO cells, provides information of the interaction of a compound with the hERG channel. The amplitude of hERG potassium channel tail currents are recorded under control and the compound solution at different concentrations. Then the IC50 value is determined from the dose-response curve.
Examples 2-3 of the present application and example No. 37 of WO2015/082533 were tested in vitro against the hERG (human Ether-à-go-go-Related Gene) potassium channel.
Frozen CHO (Chinese hamster ovary) cells stably expressing hERG channels were thawed and seeded on glass coverslips in petri dishes. Cells were cultured in HAM's F-12 media supplemented with 10% fetal bovine serum, 100 IU/mL penicillin, 100 μg/mL streptomycin and 500 μg/mL G418 (Invitrogen, Carlsbad, Calif.) in an atmosphere of 95% air/5% CO2 at 37° C. CHO cells were ready for patch-clamping after culture for 1-5 days. hERG currents were recorded at room temperature using the whole-cell patch-clamp technique with an Axopatch 200B amplifier (Molecular Devices, Sunnyvale Calif.). […] Currents were analyzed using the pCLAMP suite of software (Molecular Devices). […]
(In general: Block of hERG is tested as a sign of cardiac risk.)

A further test concerns the target T2, RORγ (Homo sapiens, UniProt P51449).
T2 construct: expressed in transfected cells; host or cells: 293FT cells (Invitrogen), expression vector pFN26A (Promega)
T2 sequence (P51449 269-508 limits assumed): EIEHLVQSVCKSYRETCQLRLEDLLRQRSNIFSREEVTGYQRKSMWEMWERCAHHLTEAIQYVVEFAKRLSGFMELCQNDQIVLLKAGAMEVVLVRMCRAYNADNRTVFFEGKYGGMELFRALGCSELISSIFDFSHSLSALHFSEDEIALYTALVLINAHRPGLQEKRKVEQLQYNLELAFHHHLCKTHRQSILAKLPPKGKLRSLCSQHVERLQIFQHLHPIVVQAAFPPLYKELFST
The test is described as follows: RORγ GAL4 reporter gene assay. To be noted: 293FT cells, luciferase readout; average of 5 experiments; read-out: RORγ GAL4 reporter gene assay pIC50 Average (converted). The test is classed as cell-based. The method, then:
Examples 2-3 of the present […] application and example No. 37 from WO2015/082533 were tested for their ability to inhibit RORγ activity in a RORγ GAL4 reporter gene assay.
A GAL4 one-hybrid reporter system employing luciferase readout was established to determine inhibition of RORγ in 293FT cells. The RORγ ligand-binding domain (LBD) was fused to the yeast GAL4 DNA binding domain (DBD) and placed under the control of the human cytomegalovirus (CMV) immediate early promoter, using expression vector pFN26A (Promega) and standard recombinant DNA cloning methods. To serve as a control in the assay, a similar vector was generated in which the GAL4-DBD was fused to Herpes simplex virus protein 16 (VP16), a constitutive transcriptional activator.
To monitor the inhibitory effect of compounds on RORγ, a transcriptional reporter construct was used. The pGL4.35 vector (Promega) contains nine copies of the GAL4 Upstream Activator Sequence (UAS). […]
The day after transfection, cells were plated into 96 well plates, test compound was added and the plates were incubated overnight. Subsequently, the firefly luciferase activity was quantified using luciferase detection reagent and luminescence readout. […]
For compound screening, the cells were harvested (as described above) and counted. […]
(In general: A reporter such as luciferase makes a cellular process visible.)

T1 sequence (Q12809 whole entry): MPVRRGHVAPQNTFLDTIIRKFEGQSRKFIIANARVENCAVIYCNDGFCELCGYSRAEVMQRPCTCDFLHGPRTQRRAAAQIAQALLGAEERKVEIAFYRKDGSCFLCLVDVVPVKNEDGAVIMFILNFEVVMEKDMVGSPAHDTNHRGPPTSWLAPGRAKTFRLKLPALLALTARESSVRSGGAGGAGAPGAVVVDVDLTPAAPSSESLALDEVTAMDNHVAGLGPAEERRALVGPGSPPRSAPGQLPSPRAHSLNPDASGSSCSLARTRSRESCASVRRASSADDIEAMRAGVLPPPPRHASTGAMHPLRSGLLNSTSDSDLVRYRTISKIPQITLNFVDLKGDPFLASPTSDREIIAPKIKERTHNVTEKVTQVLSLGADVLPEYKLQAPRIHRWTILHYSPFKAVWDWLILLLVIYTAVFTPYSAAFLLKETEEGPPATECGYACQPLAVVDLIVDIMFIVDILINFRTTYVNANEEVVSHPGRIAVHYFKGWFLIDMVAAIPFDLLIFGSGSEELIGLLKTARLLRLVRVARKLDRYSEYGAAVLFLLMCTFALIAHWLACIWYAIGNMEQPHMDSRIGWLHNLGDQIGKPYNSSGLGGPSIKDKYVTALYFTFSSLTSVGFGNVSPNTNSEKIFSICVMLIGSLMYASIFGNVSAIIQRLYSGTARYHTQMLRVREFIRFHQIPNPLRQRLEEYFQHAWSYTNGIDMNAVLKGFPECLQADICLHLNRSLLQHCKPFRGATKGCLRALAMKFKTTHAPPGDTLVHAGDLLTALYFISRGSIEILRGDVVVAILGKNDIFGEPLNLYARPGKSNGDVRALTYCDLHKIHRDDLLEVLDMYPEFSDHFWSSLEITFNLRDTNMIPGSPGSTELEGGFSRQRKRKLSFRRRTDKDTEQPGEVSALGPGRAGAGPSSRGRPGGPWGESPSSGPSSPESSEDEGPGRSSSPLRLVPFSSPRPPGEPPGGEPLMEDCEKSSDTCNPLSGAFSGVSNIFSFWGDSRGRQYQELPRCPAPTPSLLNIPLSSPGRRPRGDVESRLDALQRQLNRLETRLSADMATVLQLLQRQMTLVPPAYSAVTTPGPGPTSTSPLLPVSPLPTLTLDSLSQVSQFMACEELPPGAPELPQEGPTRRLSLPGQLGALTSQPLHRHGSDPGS

With `O=C(Cc1ccc(S(=O)(=O)CC2CC2)cc1)Nc1ccc([C@@](O)(C(F)F)C(F)(F)F)cc1` [Example 2, (+)-2-[4-(cyclopropylmethylsulfonyl)phenyl]-N-[4-[(1R)-1-(difluoromethyl)-2,2,2-trifluoro-1-hydroxy-ethyl]phenyl]acetamide], the IC50 was 14.2 µM in test [1] and 0.0398 µM at RORγ.

Take `O=C(Cc1ccc(S(=O)(=O)CC2CC2)cc1)Nc1ccc([C@](O)(C(F)F)C(F)(F)F)cc1` [Example 3, (−)-2-[4-(cyclopropylmethylsulfonyl)phenyl]-N-[4-[(1S)-1-(difluoromethyl)-2,2,2-trifluoro-1-hydroxy-ethyl]phenyl]acetamide]: the IC50 is 11.2 µM in test [1] and 0.0126 µM on RORγ.

These data come from US20190119204A1, “ROR GAMMA (RORy) MODULATORS” (Lead Pharma Holding B.V., priority 2016, published 2019).
